Data from US20260183434A1, “NEW SENESCENCE TRACER GENERATION” (Eberhard Karls Universitaet Tuebingen Medizinische Fakultaet, priority 2023, published 2026).
Values joined by “and” are separate entries in the source; they are usually repeats but may differ in a detail not shown here. Identical values can stand only once.

What was measured:
CT26.CL25 (LacZ+) = assay: In vitro tracer uptake (gamma counter) in β-galactosidase (LacZ) overexpressing cells; assay type: cell-based; conditions: β-galactosidase (LacZ) overexpression model; 1×10^6 cells, 0.74 MBq tracer, 40 min, 37° C.
Procedure: (§1) Cells were cultured in a humidified incubator (Binder, Tuttlingen, Germany) at 37° C. and 5% CO2. Fetal bovine serum (FBS, Sigma of Merck) was heat-inactivated for 30 min at 57° C. for cell culture supplementation. For in vitro uptake experiments, the cells were rinsed with DPBS, harvested with a cell scraper and finally centrifuged. The cell pellet was then washed with DPPS and resuspended in DPBS, before being counted. A suspension of 1×10^6 cells in 1 ml DPBS was incubated with 0.74 MBq of tracer at 37° C. and 5% CO2 for 40 min. After the designated incubation time, the suspension was centrifuged. The cell pellet was transferred into a fresh gamma counter tube (Sarstedt), washed twice with 1 ml DPBS and resuspended in 1 ml DPBS. The uptake was measured with a 2480 Wizard^2 automated gamma counter (Perkin Elmer).
(§2) In vitro experiments were performed by uptake quantification in a gamma-counter. In all experiments, 1 million of each of the cell lines were treated with 20 μCi of tracer. After incubation time of 40 minutes, the cells were centrifuged, the supernatant discarded and the cell pellet resuspended in fresh PBS. The samples were then measured in biodistribution tubes in a gamma counter. The tracers were tested first using a β-galactosidase (LacZ) overexpression model of a colon carcinoma cell line (CT26-CL25) and the wild type (CT26) as control (FIG. 2A). Next, the tracers were tested in a senescent cell model: a liver carcinoma cell line (Amp19) treated with ribosomal checkpoint inhibitor (RCI) (FIGS. 2B and 2C).

CT26 = assay: In vitro tracer uptake (gamma counter) in wild type CT26 control cells; assay type: cell-based; conditions: 1×10^6 cells, 0.74 MBq tracer, 40 min, 37° C.
Procedure: as §1, §2

Amp19 = assay: In vitro tracer uptake (gamma counter) in Amp19 senescence cell model; assay type: cell-based; conditions: 1×10^6 cells, 0.74 MBq tracer, 40 min; for Uptake in % ID per million cells, Amp19 (cntrl): control Amp19 cells; for Uptake in % ID per million cells, Amp19 (sen): senescent Amp19 cells (treated with RCI)
Procedure: as §1, §2

Amp19 tumors [1] = assay: Dynamic PET scans of Amp19 tumor bearing mice; assay type: in vivo
Procedure: (§3) Animal procedures were approved by the local authorities (Regierungspraesidium Tuebingen, Tuebingen, Germany) and conducted according to the German Animal Welfare Act. The mice used were between 6 and 7 weeks of age. Tumors were implanted by injecting 0.5×10^6 cells s.c. into the right flank of SCID beige mice. When most tumors reached 100 mm^3 (˜3 weeks post inoculation), the animals were randomized into two groups. The groups received 25 mg/kg/d CX-5461 (AdooQ BioScience, Irvine, CA, USA) or vehicle [50 mM monosodium phosphate (Sigma of Merck KGaA, Darmstadt, Germany), pH 4.5]i.p. for five consecutive days.
Anatomical imaging was conducted on a 7 Tesla small animal MRI scanner with a rat whole body coil and Paravision® software (Bruker, Billerica, MA, USA). The animals were then transferred to the PET scanner without moving the animal to ensure co-registration. The animals received 12±1 MBq tracer (determined by a CRC 15-R dose calibrator) was injected through a tail vein catheter, which was subsequently flushed with 50 μl heparinized saline solution. The transmission scan using an external ^57Co point source was performed for the attenuation correction. […]
The list mode raw file was histogrammed and reconstructed with OSEM3D/SP-MAP algorithm implemented in Inveon Acquisition Workplace. […] The tracer uptake was calculated as the percentage of the injected dose per cubic centimeter (% ID/cc). […]

HCT116 = assay: In vitro tracer uptake (gamma counter) in HCT116 senescence cell model; assay type: cell-based; conditions: 1×10^6 cells, 0.74 MBq tracer, 40 min; for Uptake in % ID per million cells, HCT116 (cntrl): control HCT116 cells; for Uptake in % ID per million cells, HCT116 (sen): senescent HCT116 cells
Procedure: as §1

Amp19 tumors [2] = assay: Ex vivo autoradiography of Amp19 tumors after tracer administration; assay type: in vivo, mice; conditions: cx-treated (senescent) vs non-senescent control Amp19 tumors, FIG. 5
Procedure: as §3
For autoradiography, the tumors were embedded in the optimal cutting temperature compound (Tissue-Tek® O.C.T., Sakura, Alphen aan den Rijn, Netherlands) and frozen at −20° C. in the cryotome (Leica, Wetzlar, Germany). Cryosections (20 μm) were then attached to microscope slides (SuperFrost® Plus, R. Langenbrinck, Emmendingen, Germany). The slides were exposed overnight to a phosphor screen (Molecular Dynamics of GE Healthcare). The screen was then scanned by the phosphorimager (Storm 840, Amersham of GE Healthcare). The signal intensities of sections were normalized to each other based on decay corrected animal receiving dose with the open-source software ImageJ (National Institute of Health, Bethesda, MD, USA). […]

Row | Washout of tumor uptake (dynamic PET) (Amp19 tumors [1]; treated and untreated Amp19 tumors, uptake stable, reaches a maximum and plateaus) | SMILES | Uptake in % ID per million cells, CT26.CL25 (LacZ+) (CT26.CL25 (LacZ+)) | Uptake in % ID per million cells, CT26 (CT26) [% ID per million cells] | Uptake in % ID per million cells, Amp19 (cntrl) (Amp19) [% ID per million cells] | Uptake in % ID per million cells, Amp19 (sen) (Amp19) [% ID per million cells] | Dynamic uptake in tumors (PET) (Amp19 tumors [1]; CX-treated (senescent) vs untreated control Amp19 tumors, tracer i.v., FIG. 4) | Uptake in % ID per million cells, HCT116 (cntrl) (HCT116) [% ID per million cells] | Uptake in % ID per million cells, HCT116 (sen) (HCT116) [% ID per million cells] | Autoradiography signal accumulation in tumors (Amp19 tumors [2])
1 | no observable washout effect | OC[C@H]1O[C@@H](Oc2cc([18F])ccc2COc2c(F)c(F)cc(F)c2F)[C@H](O)[C@@H](O)[C@H]1O [[^18F]TFPBGal] | 7.514 % ID per million cells | 2.444 | 3.641 | 0.3992 | higher in CX-treated (senescent) tumors compared to untreated controls at all time points | 4.745 | 2.761 | –
2 | – | OC[C@H]1O[C@@H](Oc2ccc(NCCC[18F])cc2COc2c(F)c(F)cc(F)c2F)[C@H](O)[C@@H](O)[C@H]1O [[^18F]ADTFPBGal] | 4.515 % ID per million cells | 1.403 | 1.085 | 0.205 | – | 1.564 | 0.6573 | –
3 | – | O=[N+]([O-])c1ccc(OCc2cc(NCCC[18F])ccc2O[C@@H]2O[C@H](CO)[C@H](O)[C@H](O)[C@H]2O)cc1 [[^18F]NO2BGal] | 0.9792 % ID per million cells | 1.492 | 1.286 | 0.3245 | – | 0.5052 | 0.3026 | –
4 | – | OC[C@H]1O[C@@H](Oc2ccc(N3CCN(CCC[18F])CC3)cc2)[C@H](O)[C@@H](O)[C@H]1O [[^18F]PIPGal] | 0.06898 % ID per million cells | 0.3131 | 0.3165 | 0.04018 | – | 0.1219 | 0.09843 | High signal accumulation is observed in the cx-treated (senescent) tumors compared to the non-senescent controls
5 | – | OC[C@H]1O[C@@H](Oc2cccnc2[18F])[C@H](O)[C@@H](O)[C@H]1O [[^18F]FPyGal, reference compound] | 0.5769 % ID per million cells and 1.117 % ID per million cells | – | 0.2657 | 0.0639 | – | 0.3438 | 0.1998 | –
